Where a name gives a salt, the structure may show the parent alone.
Molecular target: T1, Recombinant human cathepsin K (Homo sapiens, UniProt P43235)
T1 construct: made in house
T1 sequence (P43235 115-329): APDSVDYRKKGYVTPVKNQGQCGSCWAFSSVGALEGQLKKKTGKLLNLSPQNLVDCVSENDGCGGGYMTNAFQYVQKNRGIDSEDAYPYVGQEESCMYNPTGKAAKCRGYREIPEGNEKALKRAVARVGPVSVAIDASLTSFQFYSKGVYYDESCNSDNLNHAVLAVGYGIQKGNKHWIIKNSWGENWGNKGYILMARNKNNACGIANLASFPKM
Assay: Inhibition of cathepsin K activity (Z-Phe-Arg-AMC fluorescence assay)
Assay type: biochemical
Conditions: 25 uM Z-Phe-Arg-AMC, pH 5.5, 1 hour at 37° C.
Procedure: Test 1: Inhibition of Cathepsin K Activity
Recombinant human cathepsin K was prepared in accordance with Biol, Pharm. Bull, 19(8), 1026-1031 (1996) and J. Biol. Chem. 271, 2126-2132 (1996). Stock solutions of 2.5 mM Z-Phe-Arg-AMC (BACHEM, 1-1160) and all inhibitors were prepared in dimethyl sulfoxide. In vitro assays for cathepsin K were conducted with 25 uM Z-Phe-Arg-AMC as a substrate at pH 5.5 in 100 mM Na acetate buffer containing 20 mM cysteine and 5 mM EDTA in the presence of 2% final concentration of DMSO. Reaction was initiated by the addition of enzyme to samples, which were then incubated for 1 hour at 37° C. The fluorescence was monitored at 460 nm (excitation wavelength 360 nm) using fluorescence plate reader.
The concentrations of the test compounds, which inhibit 50% of cathepsin K activity, are represented as IC50 in Table 1.

In order of rising IC50:
1. CS(=O)(=O)c1ccccc1N1CCC(NC(=O)C2(NC(=O)c3cc4cc(OCCN5CCOCC5)ccc4o3)CCCCC2)C(=O)C1 (centres unmarked) [Example 161, 4-[N-[1-[N-(5-(2-morpholinethoxy)benzofuran-2-ylcarbonyl)amino]cyclohexanecarbonyl]amino]-1-(2-methanesulfonylphenyl)piperidin-3-one]  0.41 nM
2. CS(=O)(=O)c1ccccc1N1CCC(NC(=O)C2(NC(=O)c3cc4cc(OCCN5CCCC5)ccc4o3)CCCCC2)C(=O)C1 (centres unmarked) [Example 162, 4-[N-[1-[N-(5-(2-pyrrolidinethoxy)benzofuran-2-ylcarbonyl)amino]cyclohexanecarbonyl]amino]-1-(2-methanesulfonylphenyl)piperidin-3-one]  0.45 nM
3. CS(=O)(=O)c1ccccc1N1CCC(NC(=O)C2(NC(=O)c3cc4cc(OCCN5CCOCC5)ccc4o3)CCCCC2)C(=O)C1 (centres unmarked) [Example 164, 4-[N-[1-[N-(5-(2-morpholinethoxy)benzofuran-2-ylcarbonyl)amino]cyclohexanecarbonyl]amino]-1-(2-methanesulfonylphenyl)piperidin-3-one hydrochloride]  0.52 nM
4. CS(=O)(=O)c1ccccc1N1CCC(NC(=O)C2(NC(=O)c3cc4cc(OCCN5CCCCC5)ccc4o3)CCCCC2)C(=O)C1 (centres unmarked) [Example 163, 4-[N-[1-[N-(5-(2-piperidinethoxy)benzofuran-2-ylcarbonyl)amino]cyclohexanecarbonyl]amino]-1-(2-methanesulfonylphenyl)piperidin-3-one]  0.55 nM
5. CS(=O)(=O)Nc1cc(F)ccc1N1CCC(NC(=O)C2(NC(=O)c3ccc(OCCN4CCOCC4)cc3)CCCCC2)C(=O)C1 (centres unmarked) [Example 169, 4-[N-[1-[N-(4-(2-morpholinethoxy)benzoyl)amino]cyclohexanecarbonyl]amino]-1-(4-fluoro-2-methanesulfonylaminophenyl)piperidin-3-one]  0.58 nM
6. CCN(CC)c1ccc(C(=O)NC2(C(=O)NC3CCN(c4ccc(F)cc4S(C)(=O)=O)CC3=O)CCCCC2)cc1 (centres unmarked) [Example 172, 4-[N-[1-[N-(4-(diethylamino)benzoyl)amino]cyclohexanecarbonyl]amino]-1-(4-fluoro-2-methanesulfonylphenyl)piperidin-3-one]  0.58 nM
7. CS(=O)(=O)c1ccccc1N1CCC(NC(=O)C2(NC(=O)c3cc4cc(OCCN5CCCCC5)ccc4o3)CCCCC2)C(=O)C1 (centres unmarked) [Example 166, 4-[N-[1-[N-(5-(2-piperidinethoxy)benzofuran-2-ylcarbonyl)amino]cyclohexanecarbonyl]amino]-1-(2-methanesulfonylphenyl)piperidin-3-one hydrochloride]  0.71 nM
8. CN(C)c1ccc(C(=O)NC2(C(=O)NC3CCN(c4ccc(F)cc4S(C)(=O)=O)CC3=O)CCCCC2)cc1 (centres unmarked) [Example 171, 4-[N-[1-[N-(4-(dimethylamino)benzoyl)amino]cyclohexanecarbonyl]amino]-1-(4-fluoro-2-methanesulfonylphenyl)piperidin-3-one]  0.77 nM
9. CCN(CC)c1ccc(C(=O)NC2(C(=O)NC3CCN(c4ccc(F)cc4S(C)(=O)=O)CC3=O)CCCCC2)cc1 (centres unmarked) [Example 174, 4-[N-[1-[N-(4-(diethylamino)benzoyl)amino]cyclohexanecarbonyl]amino]-1-(4-fluoro-2-methanesulfonylphenyl)piperidin-3-one hydrochloride]  1 nM
10. CN(C)c1ccc(C(=O)NC2(C(=O)NC3CCN(c4ccc(F)cc4S(C)(=O)=O)CC3=O)CCCCC2)cc1 (centres unmarked) [Example 173, 4-[N-[1-[N-(4-(dimethylamino)benzoyl)amino]cyclohexanecarbonyl]amino]-1-(4-fluoro-2-methanesulfonylphenyl)piperidin-3-one hydrochloride]  1.59 nM
11. CS(=O)(=O)c1ccccc1N1CCC(NC(=O)C2(NC(=O)c3cc4cc(OCCN5CCCC5)ccc4o3)CCCCC2)C(=O)C1 (centres unmarked) [Example 165, 4-[N-[1-[N-(5-(2-pyrrolidinethoxy)benzofuran-2-ylcarbonyl)amino]cyclohexanecarbonyl]amino]-1-(2-methanesulfonylphenyl)piperidin-3-one hydrochloride]  1.63 nM
12. O=C(NC1(C(=O)NC2CCN(c3ccc(F)cc3N3CCCC3=O)CC2=O)CCCCC1)c1ccc(OCCN2CCOCC2)cc1 (centres unmarked) [Example 170, 4-[N-[1-[N-(4-(2-morpholinethoxy)benzoyl)amino]cyclohexanecarbonyl]amino]-1-[4-fluoro-2-(pyrrolidin-2-one-1-yl)phenyl]piperidin-3-one]  1.69 nM
13. CS(=O)(=O)c1ccccc1N1CCC(NC(=O)C2(NC(=O)c3ccc(N4CCCC4=O)cc3)CCCCC2)C(=O)C1 (centres unmarked) [Example 167, 4-[N-[1-[N-(4-(2-oxopyrrolidine)benzoyl)amino]cyclohexanecarbonyl]amino]-1-(2-methanesulfonylphenyl)piperidin-3-one]  3.07 nM
14. CS(=O)(=O)c1ccccc1N1CCC(NC(=O)C2(NC(=O)c3cc(N4CCCC4=O)co3)CCCCC2)C(=O)C1 (centres unmarked) [Example 168, 4-[N-[1-[N-(4-(2-oxopyrrolidine)furan-2-ylcarbonyl)amino]cyclohexanecarbonyl]amino]-1-(2-methanesulfonylphenyl)piperidin-3-one]  15.8 nM

From patent US7342027B2 (Yuhan Corporation, priority 2002, dated 2008)
